Data reported in patent US20070275382A1, “Biomarkers for the Efficacy of Somatostatin Analogue Treatment” (priority 2003, published 2007).
*1 amine or outer side, *2 acyl side, *3 side chain or, on linkers, in order; H or OH if unused. Where a SMILES comes first, the peptide text is derived from it. Side-chain parts run from the residue outwards. [ ]: non-standard residue; d: D form. The star is where a group is joined. Ethylenediamine = C(CN[*:2])N[*:1]; Hyp = O=C(O)[CH]1C[CH](O)CN1; Phg = N[CH](C(=O)O)c1ccccc1; CO = O=C([*:1])[*:2]; Bn = c1ccc(C*)cc1

Key:
Pancreas = assay: Microarray gene expression profiling (HG-U95A), pancreas; type: in vivo, cynomolgus monkeys
Method: (§1) Origin of tissue and processing. Male and female cynomolgus monkeys received subcutaneously pasireotide (100 μg/animal/day) or the vehicle for 14 days. On day 15, all animals were sacrificed and tissues for RNA extraction were immediately snap-frozen and kept at −80° C. until processing.
(§2) RNA expression profiling was conducted by means of the HG-U95A gene expression probe array (Affymetrix; Santa Clara, Calif. USA), containing more than 12,600 probe sets interrogating primarily full-length human genes and also some control probe sets. The experiment was conducted according to the recommendations of the manufacturer. Briefly, total RNA was obtained by acid guanidinium thiocyanate-phenol-chloroform extraction (Trizol®, Invitrogen Life Technologies, San Diego, Calif. USA) from each frozen tissue section. The total RNA was then purified on an affinity resin (Rneasy®, Qiagen) and quantified. Double stranded cDNA was synthesized with a starting amount of approximately 5 μg full-length total RNA using the Superscript® Choice System (Invitrogen Life Technologies, Carlsbad, Calif. USA) in the presence of a T7-(dT)24 DNA oligonucleotide primer. Following synthesis, the cDNA was purified by phenol/chloroform/isoamyl alcohol extraction and ethanol precipitation. The purified cDNA was then transcribed in vitro using the BioArray® High Yield RNA Transcript Labeling Kit (ENZO, Farmingdale, N.Y. USA) in the presence of biotinylated ribonucleotides form biotin labelled cRNA. The labelled cRNA was then purified on an affinity resin (Rneasy®, Qiagen), quantified and fragmented. An amount of approximately 10 μg labelled cRNA was hybridized for 16 hours at 45° C. to an expression probe array. The array was then washed and stained twice with streptavidin-phycoerythrin (Molecular Probes,) using the GeneChip® Fluidics Workstation 400 (Affymetrix, Santa Clara, Calif. USA). The array was then scanned twice using a confocal laser scanner (GeneArray® Scanner, Agilent, Palo Alto, Calif. USA) resulting in one scanned image. This resulting “.dat-file” was processed using the MAS4 program (Affymetrix) into a “.cel-file”. The “.cel file” was captured and loaded into the Affymetrix GeneChip® Laboratory Information Management System (LIMS). The LIMS database is connected to a UNIX Sun Solaris server through a network filing system that allows for the average intensities for all probes cells (CEL file) to be downloaded into an Oracle database (NPGN). Raw data was converted to expression levels using a “target intensity” of 150. The data were evaluated for quality control and loaded in the GeneSpring® software 4.2.4 (Silicon Genetics, Calif. USA) for analysis.
(§3) On the human Affymetrix HGU95Av2 chip, probe sets for individual genes contain 20 oligonucleotide pairs, each composed of a “perfect match” 25-mer and a “mismatch” 25-mer differing from the “perfect” match oligonucleotide at a single base. After probe labelling, hybridization, and laser scanning, the expression level was estimated by averaging the differences in signal intensity measured by oligonucleotide pairs of a given probe (AvgDiff value). The fold changes and directions were calculated for selected genes, from the differences of the AvgDiff values between controls and treated.
(§4) To identify genes that were impacted by pasireotide, the dataset was initially filtered to exclude in a first wave of analysis, genes whose values were systematically in the lower expression ranges where the experimental noise is high (at least 80 in a number of experiments corresponding to the smallest number of replicas of any experimental point). In a second round of selection a threshold p-value of 0.05 (based on a t-test) identified differences between treated and control based on a two component error model (Global Error Model) and, whenever possible, with a stepdown correction for multi-hypothesis testing (Benjamini and Hochberg false discovery rate). […]

Thyroid = assay: Microarray gene expression profiling (HG-U95A), thyroid; type: in vivo, cynomolgus monkeys
Method: as §1, §2, §3, §4

[1] = ↑ vs control, 100 μg/animal/day s.c., 14 days
[2] = ↓ vs control, 100 μg/animal/day s.c., 14 days
[3] = ↑ increase, treated vs controls
[4] = ↓ decrease, treated vs controls

In the case of `NCCCCC1NC(=O)C(Cc2c[nH]c3ccccc23)NC(=O)C(c2ccccc2)NC(=O)C2CC(OC(=O)NCCN)CN2C(=O)C(Cc2ccccc2)NC(=O)C(Cc2ccc(OCc3ccccc3)cc2)NC1=O` (stereo not drawn) [Pasireotide, cyclo[4-(NH2—C2H4—NH—CO—O)Pro-Phg-DTrp-Lys-Tyr(4-Bzl)-Phe]] (cyclo(F[Hyp]([CO-Ethylenediamine])[Phg]WKY(Bn)); configuration not given here), the “IGF-1 expression level, AvgDiff (range)” value (Pancreas; 0.1 mg/animal/14day) is reported as 89 (20 to 298), the “SSTR2 expression level, AvgDiff (range)” value (Pancreas; 0.1 mg/animal/14day) is reported as 156 (120 to 210) and the “Cdki 1C transcript fold change” value (Pancreas; [1]) is reported as “Cdki 1C ↑ x2”. The “Chymotrypsin-like transcript fold change” value (Pancreas; [1]) was “↑ x3.5”, the “Cyclin D1 transcript fold change” value (Pancreas; [1]) was “Cyclin D1 ↑ x2” and the “GLUR precursor, flip isoform transcript fold change” value (Pancreas; [1]) was “flip isoform ↑ x3”. The “IFN regulatory factor 3 transcript fold change” value (Pancreas; [1]) was “factor 3 ↑ x5”, the “IGF-1 transcript fold change” value (Pancreas; [1]) was “IGF-1 ↑ x4.5” and the “IP-1-phosphatase transcript fold change” value (Pancreas; [1]) was “↑ x2.5”. For the same molecule, the “Integrin α 2b precursor transcript fold change” value (Pancreas; [1]) was “precursor ↑ x1.5”, the “Na+ channel, voltage-gated, type 1, β polypeptide transcript fold change” value (Pancreas; [1]) was “↑ x2” and the “PDGFR α transcript fold change” value (Pancreas; [1]) was “PDGFR α ↑ x2.5”. For the same molecule, the “PDGFR, α polypeptide transcript fold change” value (Pancreas; [1]) was “↑ x1.5”, the “PI-4-kinase, catalytic, α polypeptide transcript fold change” value (Pancreas; [1]) was “α polypeptide ↑ x1.5” and the “PL A2, group IVC (cytosolic, calcium-independent) transcript fold change” value (Pancreas; [1]) was “independent) ↑ x1.5”. The “Prostacyclin synthase transcript fold change” value (Pancreas; [1]) was “synthase ↑ x2”, the “THR interactor 10 transcript fold change” value (Pancreas; [1]) was “↑ x2.5” and the “Thrombospondin 2 transcript fold change” value (Pancreas; [1]) was “↑ x3.5”. The “BCL2/adenovirus E1B 19 kD-intracting protein 1, isoform BNIP1-a transcript fold change” value (Pancreas; [2]) was “BNIP1-a ↓ x1.5”, the “CRHR 1 transcript fold change” value (Pancreas; [2]) was “CRHR 1 ↓ x2” and the “Ca++ channel, voltage dependent, α 1F subunit transcript fold change” value (Pancreas; [2]) was “↓ x4.5”. The “Cyclin T2 transcript fold change” value (Pancreas; [2]) was “Cyclin T2 ↓ x2”, the “G-CSF protein transcript fold change” value (Pancreas; [2]) was “↓ x2” and the “Gastrin-releasing peptide receptor transcript fold change” value (Pancreas; [2]) was “↓ x5”. For the same molecule, the “IL 1 receptor antagonist transcript fold change” value (Pancreas; [2]) was “antagonist↓ x2”, the “K+ voltage-gated channel, KQT-like subfamily, member3 transcript fold change” value (Pancreas; [2]) was “↓ x2.5” and the “Neuro-blastoma apoptosis-related RNA binding protein transcript fold change” value (Pancreas; [2]) was “protein ↓ x3”. The “Phosphotyrosine independent ligand p62B for the Lck SH2 domain B-cell isoform transcript fold change” value (Pancreas; [2]) was “isoform ↓ x2”, the “Smad 3 transcript fold change” value (Pancreas; [2]) was “Smad 3 ↓ x1.5” and the “THR binding protein transcript fold change” value (Pancreas; [2]) was “protein ↓ x2”. For the same molecule, the “IGF-1 expression level, AvgDiff (range)” value (Thyroid; 0.1 mg/animal/14day) was 58 (20 to 114), the “Endothelial differentiation-related factor 1 RNA expression change” value (Thyroid; direction only, treated vs controls) was “related factor 1 ↑” and the “CD2 antigen (cytoplasmic tail)-binding protein 2 RNA expression fold change” value (Thyroid; [3]) was “↑ x3.5”. The “Cadherin 13, H-cadherin (heart) RNA expression fold change” value (Thyroid; [3]) was “↑ x2”, the “Cannabinoid receptor 2 (macrophage) RNA expression fold change” value (Thyroid; [3]) was “↑ x3” and the “GABA (B) receptor 1, isoform a precursor RNA expression fold change” value (Thyroid; [3]) was “↑ x2.5”. For the same molecule, the “IFNα-inducible protein 27 RNA expression fold change” value (Thyroid; [3]) was “protein 27 ↑ x3”, the “IFNγ-inducible protein 30 RNA expression fold change” value (Thyroid; [3]) was “↑ x3.5” and the “PDGF-associated Protein RNA expression fold change” value (Thyroid; [3]) was “Protein ↑ x2”. For the same molecule, the “PDGFR β RNA expression fold change” value (Thyroid; [3]) was “↑ x2”, the “Phosphatidyl ethanolamine N-methyl-transferase RNA expression fold change” value (Thyroid; [3]) was “↑ x2” and the “Pro-platelet basic protein (includes platelet basic protein, β-thromboglobulin, connective tissue-activating peptide III, neu) 2 RNA expression fold change” value (Thyroid; [3]) was 2 ↑ x3.5. The “RANTES RNA expression fold change” value (Thyroid; [3]) was “↑ x10.5”, the “Solute carrier family 21 (PG transporter), member 2 RNA expression fold change” value (Thyroid; [3]) was “member 2 ↑ x2” and the “TNF (ligand) superfamily, member 10 RNA expression fold change” value (Thyroid; [3]) was “↑ x2”. The “Thrombospondin 2 RNA expression fold change” value (Thyroid; [3]) was “spondin 2 ↑ x2”, the “VWF precursor RNA expression fold change” value (Thyroid; [3]) was “precursor ↑ x2” and the “ATPase, Ca++ transporting, cardiac muscle, fast twitch 1 RNA expression fold change” value (Thyroid; [4]) was “↓ x4.5”. The “Adenylate cyclase activating polypeptide precursor RNA expression fold change” value (Thyroid; [4]) was “↓ x1.5”, the “Adrenergic, α-2C-, receptor RNA expression fold change” value (Thyroid; [4]) was “↓ x2.5” and the “Bcl-2 binding component 3 RNA expression fold change” value (Thyroid; [4]) was “↓ x2”. The “Brain cannabinoid receptor 1 RNA expression fold change” value (Thyroid; [4]) was “↓ x2”, the “CD2 antigen (p50), sheep red blood cell receptor RNA expression fold change” value (Thyroid; [4]) was “↓ x7.5” and the “COL1A1 and PDGFB fusion transcript RNA expression fold change” value (Thyroid; [4]) was “transcript ↓ x6”. For the same molecule, the “Calcium/calmodulin dependent protein kinase 1 RNA expression fold change” value (Thyroid; [4]) was “↓ x2”, the “Calcium/calmodulin-dependent PK IV RNA expression fold change” value (Thyroid; [4]) was “IV ↓ x7.5” and the “Calmodulin-dependent PK IV (CaM-kinase IV) RNA expression fold change” value (Thyroid; [4]) was “IV) ↓ x7.5”. For the same molecule, the “Cdc-like 5 (cholinesterase-related cell division controller) RNA expression fold change” value (Thyroid; [4]) was “↓ x2”, the “Cdk 5, regulatory subunit 1 (p35) RNA expression fold change” value (Thyroid; [4]) was “↓ x5” and the “Chemokine (C-X-C motif), receptor 4 (fusin) RNA expression fold change” value (Thyroid; [4]) was “(fusin) ↓ x3”. The “Cholecystokinin B receptor RNA expression fold change” value (Thyroid; [4]) was “B receptor ↓ x3”, the “Cyclin B2 RNA expression fold change” value (Thyroid; [4]) was “↓ x2.5” and the “DAG 1 kinase, α (80 kD) RNA expression fold change” value (Thyroid; [4]) was “↓ x4”. For the same molecule, the “EGF-like module containing, mucin-like, hormone receptor-like sequence 1 RNA expression fold change” value (Thyroid; [4]) was “↓ x5”, the “FKBP-associated protein RNA expression fold change” value (Thyroid; [4]) was “protein ↓ x2.5” and the “Flt3 ligand RNA expression fold change” value (Thyroid; [4]) was “Flt3 ligand ↓ x4.5”. The “Fms-related tyrosine kinase 1(VEGF/vascular permeability factor receptor) RNA expression fold change” value (Thyroid; [4]) was “↓ x2”, the “GABA (A) receptor, γ2 precursor RNA expression fold change” value (Thyroid; [4]) was “↓ x1.5” and the “Gastric inhibitory polypeptide 1 receptor RNA expression fold change” value (Thyroid; [4]) was “receptor ↓ x2”. The “Glutamate receptor, metabotropic 2 precursor RNA expression fold change” value (Thyroid; [4]) was “precursor ↓ 3.5”, the “Growth arrest-specific 1 RNA expression fold change” value (Thyroid; [4]) was “↓ x2.5” and the “IFNγ responsive transcript RNA expression fold change” value (Thyroid; [4]) was “transcript ↓ x1.5”. The “IGF-1 RNA expression fold change” value (Thyroid; [4]) was “IGF-1 ↓ x1.5”, the “IL2-inducible T-cell kinase RNA expression fold change” value (Thyroid; [4]) was “cell kinase ↓ x12” and the “IL9 receptor RNA expression fold change” value (Thyroid; [4]) was “↓ x2”. For the same molecule, the “IP3 receptor type 3 RNA expression fold change” value (Thyroid; [4]) was “↓ x1.5”, the “K+ voltage-gated channel, shaker-related subfamily, member 3 RNA expression fold change” value (Thyroid; [4]) was “↓ x4.5” and the “LTB4 receptor (chemokine receptor-like 1) RNA expression fold change” value (Thyroid; [4]) was “↓ x1.5”. The “Lymphocyte specific protein tyrosine kinase RNA expression fold change” value (Thyroid; [4]) was “↓ x4”, the “P56lck RNA expression fold change” value (Thyroid; [4]) was “P56lck ↓ x18” and the “PDGFR α RNA expression fold change” value (Thyroid; [4]) was “↓ x3”. The “PIP 5-phosphatase type IV RNA expression fold change” value (Thyroid; [4]) was “x3”, the “PLC, γ 1 (formerly subtype 148) RNA expression fold change” value (Thyroid; [4]) was 148) ↓ x2 and the “RAG1 RNA expression fold change” value (Thyroid; [4]) was “RAG1 ↓ x18”. For the same molecule, the “RAG2 RNA expression fold change” value (Thyroid; [4]) was “RAG2 ↓ x5”, the “SH2 domain protein 1A, Duncan's disease (lymphoproliferative syndrome) RNA expression fold change” value (Thyroid; [4]) was “↓ x7.5” and the “Signalling lymphocytic activation molecule RNA expression fold change” value (Thyroid; [4]) was “molecule ↓ x4.5”. The “TCR ζ chain precursor RNA expression fold change” value (Thyroid; [4]) was “precursor ↓ x5.5”, the “TSHR RNA expression fold change” value (Thyroid; [4]) was “TSHR ↓ x2” and the “Transcription factor 7 (T-cell specific, HMG-box) RNA expression fold change” value (Thyroid; [4]) was “box) ↓ x16.5”. For the same molecule, the “c-AMP responsive element binding protein 1 RNA expression fold change” value (Thyroid; [4]) was “protein 1 ↓ x2”.
